The source of these data is patent US20100022646A1, “METHOD OF NEUTRALISING ORGANOBORONATES WITH ACIDS” (priority 2004, published 2010).

Series [1] concerns the target T1, thrombin (Homo sapiens, UniProt P00734).
T1 construct: purchased Haematologic Technologies Inc
Briefly: Thrombin amidolytic assay (FIGS. 1 to 3): neutralisation of TRI 50c inhibition of thrombin. It counts as biochemical. Conditions: for neutralising the effect of TRI 50c (thrombin activity restored): added after 100 nM TRI 50c; for TRI 50c neutralising activity: FIG. 2, cholesterol linoleic acid esters and free linoleic acids, stereoisomers; for neutralising ability against TRI 50c: FIG. 3, over 30 minutes. As to the method:
Peptide boronate inhibitors were synthesised by Trigen Limited. Thrombin was obtained from Haematologic Technologies Inc. Chromogenic substrate was obtained from Quadratech. Linoleic acid analogues were obtained from Cayman Chemicals USA. Buffer reagents were obtained from Merck.
Peptide boronate inhibitor of thrombin (TRI 50c, 100 nM) was incubated with thrombin (33.3 ng/ml) in assay buffer (100 mM sodium phosphate, 200 mM NaCl, 0.5% PEG 6000 and 0.02% sodium azide, pH 7.5) for 5 minutes at 37° C. Test compounds were then added and incubated for various amounts of time prior to the addition of S2238 chromogenic substrate (5 uM). The reaction was followed at […] and 37° C. using a Thermomax kinetic plate reader (Molecular Devices Corporation). Results of the assay are expressed as percentage activities of thrombin relative to that seen in the absence of inhibitor or antidote.

The test system of series [2] is thrombin. Briefly: IC50 values: percentage reversal of TRI 50c inhibition of thrombin by hydroxy fatty acid. It counts as biochemical. The following applies: thrombin 33.3 ng/ml, TRI 50c 300 nM final, 30 minutes at 37° C., S2238. As to the method:
50 μl thrombin (33.3 ng/ml in assay buffer) and 20 μl TRI 50c (300 nM final) were added to 10 μl assay buffer (100 mM Na orthophosphate (80% Na2HPO4 and 20% NaH2PO4), 200 mM NaCl, 0.5% PEG 6000, 0.02% Na azide, pH 7.5) and incubated for 5 minutes at 37° C. After the incubation period 100 μl of hydroxy fatty acid was added and further incubated for 30 minutes at 37° C. […] Results were expressed as percentage reversal of TRI 50c inhibition.

Series [3] can be described thus: Assay for deboronation (LCMS of TGN 255/9(S)-HODE mixture). Conditions: TGN 255 6.7 mg/ml, 9(S)-HODE 0.01 mg/ml, 37° C. 30 mins, then room temperature overnight; uv chromatogram and mass. Here is the method:
This Example relates to a method for detecting the amount of deboronation of a product, TRI 50, in the presence of 9-HODE. A proposed mechanism for the degradation of TRI 50 is shown below.
The thrombin buffer was made up of 100 mM NaOphosphate [80% Na2HPO4 (11.36 g/l anhydrous)+20% NaH2PO4 (2.4 g/l anhydrous)], 200 mM NaCl (11.688 g/l), 0.5% PEG 6000 (5 g/l), 0.02% Na azide (0.2 g/l), pH 7.5.
TGN 255 (20 mg) was dissolved in DMSO (1.9 ml). To this was added thrombin buffer (0.8 ml), followed by 9(S)-HODE (supplied by Cayman Chemical) in thrombin buffer (0.3 ml, 337 uM). The solution was incubated at 37° C. for 30 mins.
Samples of TGN 255 (14 mg/ml in methanol) and Impurity I (5.6 mg/ml in methanol) were prepared as standards. The 9(S)-HODE assay sample was allowed to stand at room temperature overnight and analysed the following day.

Series [4] can be described thus: Neutralisation by cholesteryl linoleate hydroperoxide (residual TRI-50b concentration). Here is the method: Cholesteryl linoleate hydroperoxide (44 μM) was incubated with TRI-50b in the range 0 to 4.9 mM. Samples were taken at timed intervals and the residual TRI-50b concentration was determined by Method C (Materials and Methods).

Some results are limits rather than exact numbers.

As for “9,13- hydroxy cholesterol linoleic acid ester [9/13-CLOH]”, the “neutralising the effect of TRI 50c (thrombin activity restored)” value (“neutralising the effect of TRI 50c” below) on thrombin [1] (FIG. 1) is listed as “effective in neutralising the effect of TRI 50c”.
What is called IC50 is the concentration at which inhibition is half-maximal. Consider `CCCCC/C=C\C/C=C\C/C=C\C=C\C(O)CCCC(=O)O` (racemic) [(+/−)5-HETE], for which the IC50 in the series with thrombin [2] is more than 30 µM.
Same read-out and setting: to `CCCCC/C=C\C/C=C\CC(O)C(O)C/C=C\CCCC(=O)O` (racemic) [(+/−)8,9-DIHETRE] belongs more than 30 µM.
In the case of `CCCCC/C=C\C/C=C\C=C\C(O)C/C=C\CCCC(=O)O` (racemic) [(+/−)8-HETE], the IC50 in the series on thrombin [2] was more than 30 µM.
Still for that read-out and setting: to `CCCCC/C=C\C=C\C(O)CCCCCCCCCC(=O)O` (racemic) [(+/−)11-HEDE] belongs more than 30 µM.
Same read-out and setting: to `C[C@H]1CCC/C=C/C2C[C@H](O)CC2[C@H](O)/C=C/C(=O)O1` (single isomer, unassigned; (+)) [(+)-Brefeldin A, reference compound] belongs more than 30 µM.
The same measure, in the same setting: to `COC(=O)[C@H]1CC2CCC1[C@@H](O)C2` (stereo in doubt) [Methyl 6-hydroxybicyclo[2.2.2]octane-2-carboxylate, reference compound] belongs more than 30 µM; to `CCCCC/C=C\C/C=C\C/C=C\C=C\[C@H](CCCC(=O)O)OO` [5(S)-HPETE], 25 µM.
For the compound `CC/C=C\C/C=C\C/C=C\C=C\[C@@H](O)C/C=C\CCCC(=O)O` [8(S)-HEPE, 8(S)-hydroxy-5Z, 9E, 11Z, 14Z, 17Z-eicosapentaenoic acid], the IC50 with thrombin [2] came out at 14 µM.
Take `CCCCC/C=C\C/C=C\C=C\[C@@H](O)CCCCCCC(=O)O` [8(S)-HETRE, 8(S)-hydroxy-9E, 11Z, 14Z-eicosatrienoic acid]: the IC50 with thrombin [2] was found to be 16 µM.
On the same count and under the same terms, to `CCCCC/C=C\C=C\[C@H](O)CCCCCCCC(=O)O` [9(R)-HODE] belongs more than 30 µM.
As to `CCCCC/C=C\C=C\[C@@H](O)CCCCCCCC(=O)OC1CC[C@@]2(C)C(=CCC3C4CCC(C(C)CCCC(C)C)[C@@]4(C)CCC32)C1` (stereo partly drawn) [9(S)-HODE cholesteryl ester], at thrombin [1], the “TRI 50c neutralising activity” value was “particularly good” and the “neutralising ability against TRI 50c” value is recorded as “very good”. In addition, the IC50 in the series on thrombin [2] stood at 4.4 µM.
Regarding `CCCCC/C=C\C=C\[C@@H](O)CCCCCCCC(=O)O` [9(S)-HODE, 9(S)-hydroxy-10E,12Z-octadecadienoic acid], on thrombin [1], the “TRI 50c neutralising activity” value is “particularly good” and the “neutralising ability against TRI 50c” value is recorded as “particularly good effect”. For the same compound, in the series on thrombin [2], the IC50 came to 12 µM. In addition, the “deboronation/degradation of TGN 255 to Impurity I” value in series [3] was “degradation has occurred”.
Consider `CC/C=C\C/C=C\C=C\[C@@H](O)CCCCCCCC(=O)O` [9(S)-HOTRE], for which, in the series on thrombin [2], the IC50 was more than 30 µM.
The same measure, in the same setting: the result for `CCCCC/C=C\C=C\[C@H](CCCCCCCC(=O)O)OO` [9(S)-HpODE, 9-(S)-hydroperoxy-10E,12Z-octadecadienoic acid] reads more than 30 µM.
Turning to `CCCCCC=CC=CC(O)CCCCCCCC(=O)O[C@H]1CC[C@@]2(C)C(=CC[C@H]3[C@@H]4CC[C@H]([C@H](C)CCCC(C)C)[C@@]4(C)CC[C@@H]32)C1` (stereo partly shown) [9-CLOH, 9-hydroxy cholesterol linoleic acid ester], at thrombin [1] (FIG. 1), the “neutralising the effect of TRI 50c” value is on record as “effective in neutralising the effect of TRI 50c”.
On to `CCCCC[C@@H](/C=C/C=C\CCCCCCCC(=O)O)OO` [13(S)-HpODE, 13(S)-hydroperoxy-octadecadienoic acid], for which the “TRI 50c neutralising activity” value on thrombin [1] is given as “particularly good”.
On to `CC1(C)[C@@]2(C)CC[C@]1(C)[C@H](CC(=O)O)[C@H]2O` [(−)-Isoborneolacetic Acid, reference compound], for which the IC50 in the series with thrombin [2] is more than 30 µM.
Take `COCCC[C@H](NC(=O)[C@@H]1CCCN1C(=O)[C@@H](Cc1ccccc1)NC(=O)OCc1ccccc1)B(O)O` [TRI 50c, Cbz-(R)-Phe-(S)-Pro-(R)-Mpg-B(OH)2, reference compound]: the “thrombin activity as compared with the control (no TRI 50c present)” value at thrombin [1] (FIG. 1, addition of 100 nM TRI 50c, thrombin 33.3 ng/ml, S2238 substrate) was “approximately 50%”.
With “cholesterol hydroperoxylinoleic acid ester [CLOOH]”, at thrombin [1] (FIG. 1), the “neutralising the effect of TRI 50c” value is listed as “effective in neutralising the effect of TRI 50c”. In addition, the “TRI 50c neutralising activity” value at thrombin [1] was “particularly good”. Further, the equivalence of neutralisation entry in series [4] (44 μM cholesteryl linoleate hydroperoxide mixed with TRI-50b) is “approximately 1 mole/mole”. Besides, the “rate of neutralisation of TRI-50b” value in series [4] (44 μM cholesteryl linoleate hydroperoxide, TRI-50b 0 to 4.9 mM) was “high rate of neutralisation”.
